From patent publication US9096832B2, “Differentiation of human embryonic stem cells” (LifeScan, Inc., priority 2007, dated 2015)
Several values for one entry are separate records, joined by “and”; a condition that tells them apart may be missing. Identical values can stand only once.

Experiments:
[1] = tested on: human embryonic stem cell line H9; assay: Cells from […] differentiated on MEFs: role of Wnt-3a (real-time PCR, FACS); format: cell-based
Description: Cells from the human embryonic stem cell line H9 cultured on […]™ for at least five passages were seeded onto MEF feeders in ES media.
At day 3 and 5, the cultures were analyzed by real time PCR for SOX-17, SOX-7, Alpha-fetal protein (AFP), CXCR4, Brychyury (Bry), gooscecoid (GSC), HNF-3 beta, GATA4, hTERT and Oct4. AFP and SOX-7 are regarded as visceral endoderm markers while GATA4, HNF-3beta and SOX-17 represent definite endoderm markers and GSC, Bry, and CXCR4 represent markers of primitive streak. hTERT and Oct-4 are markers for self renewal and pluripotency respectively. FACS analysis was also performed at day 3 and 5.

SA002 P38 cells = assay: Differentiation of SA002 ES line on […] to definitive endoderm (real-time PCR, FACS); format: cell-based, human; conditions: 20 ng/ml Wnt-3a with 100 ng/ml activin A
From the text: Expression of CXCR4 is depicted in FIG. 45: a) AA treatment b) AA+Wnt-3a c) AA+GSK-3B inhibitor.

[2] = tested on: human embryonic stem cell line H1 at passage 55; assay: Definitive endoderm on human serum coated plates (real-time PCR); format: cell-based; conditions: with activin A, vs activin A only
Description: Cultures of the human embryonic stem cell line H1 at passage 55 were grown and differentiated on human serum (Sigma, #H1388, MO) coated plates. 0.5 ml of human serum was added to each well of 6 well tissue culture treated dish, incubated for 1 hr at room temperature, and aspirated before adding human embryonic stem cells. […] These findings parallel our findings for human embryonic stem cells cultured on […]™ or human fibronectin coated plates.

[3] = tested on: human embryonic stem cell line H9; assay: Cytokine array (RayBiotech) of cell lysates and conditioned media, Activin A +/- Wnt3a (Table VII); format: cell-based; set-up: Angiogenin / BDNF / BMP-4 / BMP-6 / CK beta 8-1 / Eotaxin-3 / Flt-3 Ligand / Fractalkine / GCP-2 / GDNF / GM-CSF / I-309 / IFN-gamma / IGFBP-1 / IGFBP-2 / IGFBP-4 / IL-10 / IL-13 / IL-15 / IL-1alpha / IL-1beta / IL-1ra / IL-3 / IL-5 / Leptin / MCP-1 / MIP-1-delta / NT-3 / RANTES / SCF / TGF-beta 1 / TNF-beta / Acrp30 / AgRP / AxI / bFGF: unit not given here
Description: At passage 54, cells were differentiated in the presence of 100 ng/mlActivinA+/−10 ng/mlWnt3a for 2 days in 0.5% FBS DMEM/F12. […]
Cell lysates were prepared from cells of each treatment group, with a mammalian cell lysis kit (Sigma-Aldrich,MO). Conditioned media from each treatment group was collected and concentrated. Cytokine array analysis was completed using Cytokine Array panels provided by RayBiotech, GA (http://www.raybiotech.com/). […] For each panel, positive and negative controls are also included.

[4] = Cell conditioned media, H9 day 5, samples 1,2
[5] = Cell lysate, H9 day 5, samples 1,2

Q: Which “role in differentiation of hES cells cultured on MEFs to definitive endoderm” value [1] does the source give for Wnt-3a here?
A: does not appear to play a significant role

Q: What about the AFP expression ([1]; Wnt-3a added to 100 ng/ml activin A) of the same substance?
A: increase in the expression of AFP that increases over time

Q: What about the “expression of DE markers in SA002 line” value (SA002 P38 cells) of the same substance?
A: required addition of Wnt-3A for robust expression

Q: What about the “expression of definitive endoderm markers” value [2] of the same substance?
A: Robust expression

Q: And the Acrp30 [3, 4]?
A: 2,795.71 and 2,302.99

Q: What about the AgRP [3, 4] of the same substance?
A: 651.26 and 482.21

Q: And the Amphiregulin [3, 4]?
A: 619.07 and 782.60

Q: And the Angiogenin [3, 4]?
A: 57,442.48 and 54,969.04

Q: What about the Angiopoietin-2 [3, 4] of the same substance?
A: 65,959.24 and 71,664.21

Q: What about the AxI [3, 4] of the same substance?
A: 610.40 and 748.34

Q: And the BDNF [3, 4]?
A: 770.08 and 715.86

Q: And the BLC [3, 4]?
A: 337.12 and 249.80

Q: And the BMP-6 [3, 4]?
A: 985.70 and 670.60

Q: And the “CK beta 8-1” value [3, 4]?
A: 42.78 and 75.44

Q: What about the CNTF [3, 4] of the same substance?
A: 787.19 and 541.51

Q: And the EGF [3, 4]?
A: 23,331.57 and 22,768.53

Q: And the Eotaxin-2 [3, 4]?
A: 2,156.21 and 1,445.14

Q: And the Eotaxin-3 [3, 4]?
A: 2,140.81 and 1,480.35

Q: What about the FGF-6 [3, 4] of the same substance?
A: 3,283.94 and 2,519.78

Q: What about the “Flt-3 Ligand” value [3, 4] of the same substance?
A: 511.67 and 792.98

Q: And the Fractalkine [3, 4]?
A: 359.37 and 367.15

Q: What about the GCP-2 [3, 4] of the same substance?
A: 451.78 and 362.12

Q: What about the GDNF [3, 4] of the same substance?
A: 443.22 and 509.66

Q: And the GM-CSF [3, 4]?
A: 1,808.82 and 1,446.82

Q: What about the I-309 [3, 4] of the same substance?
A: 318.30 and 288.36

Q: What about the IFN-gamma [3, 4] of the same substance?
A: 1,238.97 and 1,435.08

Q: What about the IGF-I [3, 4] of the same substance?
A: 254.98 and 187.77

Q: And the IGFBP-1 [3, 4]?
A: 227.60 and 155.91

Q: What about the IGFBP-2 [3, 4] of the same substance?
A: 42,215.53 and 43,934.33

Q: What about the IGFBP-4 [3, 4] of the same substance?
A: 18,988.34 and 13,380.14

Q: And the IL-1alpha [3, 4]?
A: 3,999.26 and 3,545.79

Q: What about the IL-1beta [3, 4] of the same substance?
A: 316.59 and 278.30

Q: What about the IL-1ra [3, 4] of the same substance?
A: 354.23 and 581.75

Q: And the IL-2 [3, 4]?
A: 758.10 and 881.84

Q: And the IL-3 [3, 4]?
A: 11,345.78 and 12,174.73

Q: What about the IL-4 [3, 4] of the same substance?
A: 804.30 and 673.95

Q: And the IL-5 [3, 4]?
A: 2,120.27 and 1,713.38

Q: And the IL-6 [3, 4]?
A: 9,774.82 and 9,991.93

Q: What about the IL-10 [3, 4] of the same substance?
A: 1,625.71 and 1,129.96

Q: And the IL-13 [3, 4]?
A: 2,522.42 and 1,807.27

Q: And the IL-15 [3, 4]?
A: 2,495.04 and 1,981.62

Q: What about the IL-16 [3, 4] of the same substance?
A: 436.38 and 405.71

Q: What about the LIGHT [3, 4] of the same substance?
A: 1,346.78 and 1,108.17

Q: What about the Leptin [3, 4] of the same substance?
A: 7,238.71 and 4,886.99

Q: What about the M-CSF [3, 4] of the same substance?
A: 740.98 and 684.01

Q: What about the MCP-1 [3, 4] of the same substance?
A: 2,015.89 and 1,567.53

Q: What about the MCP-2 [3, 4] of the same substance?
A: 694.78 and 694.07

Q: And the MCP-3 [3, 4]?
A: 701.62 and 583.42

Q: What about the MCP-4 [3, 4] of the same substance?
A: 231.02 and 276.62

Q: And the MIP-1-delta [3, 4]?
A: 474.02 and 291.71

Q: And the MIP-3-alpha [3, 4]?
A: 208.78 and 184.41

Q: And the NAP-2 [3, 4]?
A: 371.35 and 343.68

Q: What about the NT-3 [3, 4] of the same substance?
A: 571.57 and 427.51

Q: And the PARC [3, 4]?
A: 474.02 and 363.80

Q: And the PDGF-BB [3, 4]?
A: 2,635.37 and 2,005.09

Q: And the RANTES [3, 4]?
A: 682.80 and 855.01

Q: What about the SCF [3, 4] of the same substance?
A: 1,394.69 and 2,155.98

Q: And the SDF-1 [3, 4]?
A: 326.85 and 616.95

Q: What about the “TGF-beta 1” value [3, 4] of the same substance?
A: 1,827.65 and 1,849.18

Q: And the “TGF-beta 3” value [3, 4]?
A: 294.34 and 343.68

Q: What about the TNF-alpha [3, 4] of the same substance?
A: 2,609.70 and 2,167.71

Q: What about the TNF-beta [3, 4] of the same substance?
A: 1,701.01 and 1,637.94

Q: And the bFGF [3, 4]?
A: 1,226.99 and 1,241.09

Q: And the Acrp30 [3, 5]?
A: 601.61 and 690.66

Q: What about the AgRP [3, 5] of the same substance?
A: 77.82 and 89.00

Q: And the Angiogenin [3, 5]?
A: 619.40 and 750.85

Q: What about the AxI [3, 5] of the same substance?
A: 88.59 and 139.03

Q: And the BDNF [3, 5]?
A: 763.51 and 951.45

Q: And the BLC [3, 5]?
A: 742.24 and 476.36

Q: And the BMP-4 [3, 5]?
A: 348.44 and 304.48

Q: And the BMP-6 [3, 5]?
A: 571.23 and 641.05

Q: What about the “CK beta 8-1” value [3, 5] of the same substance?
A: 22.48 and 21.54

Q: And the CNTF [3, 5]?
A: 1,382.51 and 1,060.82

Q: And the EGF [3, 5]?
A: 742.24 and 984.39

Q: What about the Eotaxin [3, 5] of the same substance?
A: 301.87 and 253.80

Q: What about the Eotaxin-3 [3, 5] of the same substance?
A: 934.12 and 847.56

Q: And the “Flt-3 Ligand” value [3, 5]?
A: 857.45 and 795.19

Q: And the Fractalkine [3, 5]?
A: 792.02 and 456.51

Q: And the GCP-2 [3, 5]?
A: 593.71 and 538.86

Q: And the GDNF [3, 5]?
A: 436.75 and 444.68

Q: What about the GM-CSF [3, 5] of the same substance?
A: 1,343.17 and 1,161.75

Q: And the I-309 [3, 5]?
A: 708.52 and 743.25

Q: And the IFN-gamma [3, 5]?
A: 1,202.67 and 1,037.60

Q: What about the IGFBP-1 [3, 5] of the same substance?
A: 59.41 and 85.73

Q: And the IGFBP-2 [3, 5]?
A: 2,671.90 and 2,414.72

Q: And the IGFBP-4 [3, 5]?
A: 4,459.85 and 4,173.19

Q: What about the IL-1alpha [3, 5] of the same substance?
A: 1,612.93 and 1,421.89

Q: What about the IL-1beta [3, 5] of the same substance?
A: 352.05 and 312.08

Q: What about the IL-1ra [3, 5] of the same substance?
A: 302.68 and 198.48

Q: And the IL-3 [3, 5]?
A: 2,119.94 and 1,497.48

Q: What about the IL-4 [3, 5] of the same substance?
A: 625.42 and 638.94

Q: And the IL-5 [3, 5]?
A: 1,245.23 and 1,167.24

Q: And the IL-10 [3, 5]?
A: 1,222.75 and 1,096.30

Q: What about the IL-13 [3, 5] of the same substance?
A: 1,486.89 and 1,407.96

Q: What about the IL-15 [3, 5] of the same substance?
A: 1,677.16 and 1,601.79

Q: What about the IL-16 [3, 5] of the same substance?
A: 651.11 and 668.50

Q: What about the Leptin [3, 5] of the same substance?
A: 1,234.39 and 1,091.65

Q: What about the M-CSF [3, 5] of the same substance?
A: 852.63 and 867.83

Q: What about the MCP-1 [3, 5] of the same substance?
A: 1,022.03 and 1,076.03

Q: What about the MCP-3 [3, 5] of the same substance?
A: 1,184.61 and 1,255.50

Q: And the MCP-4 [3, 5]?
A: 1,380.51 and 1,606.86

Q: What about the MDC [3, 5] of the same substance?
A: 269.36 and 280.41

Q: What about the MIG [3, 5] of the same substance?
A: 1,113.16 and 1,137.26

Q: And the MIP-1-delta [3, 5]?
A: 491.75 and 322.22

Q: What about the MIP-3-alpha [3, 5] of the same substance?
A: 1,602.09 and 1,399.93

Q: And the NT-3 [3, 5]?
A: 316.73 and 275.76

Q: What about the PARC [3, 5] of the same substance?
A: 352.85 and 353.04

Q: What about the PDGF-BB [3, 5] of the same substance?
A: 517.84 and 597.56

Q: And the RANTES [3, 5]?
A: 724.98 and 637.25

Q: What about the SCF [3, 5] of the same substance?
A: 1,152.50 and 1,021.13

Q: What about the TARC [3, 5] of the same substance?
A: 372.93 and 343.33

Q: And the “TGF-beta 1” value [3, 5]?
A: 1,426.67 and 1,240.30

Q: What about the TNF-alpha [3, 5] of the same substance?
A: 2,851.74 and 1,285.91

Q: What about the TNF-beta [3, 5] of the same substance?
A: 1,049.33 and 1,026.62

Q: And the bFGF [3, 5]?
A: 11,722.95 and 21,398.52

Q: What about the “Angiogenin, IGFBP-1 and EGF” value ([3]; cell conditioned media) of the same substance?
A: Noticeable upregulation

Q: What about the “proteins including IGFBP-1, TGFbeta-1 and TGFbeta-3” value ([3]; cell lysates) of the same substance?
A: upregulated
